Reference: the NIST ThermoML archive (doi:10.1021/je800110r)
Values joined by “and” are separate entries in the source; they are usually repeats but may differ in a detail not shown here. Equal entries are not always repeated.

Details: Liquid, Vibrating tube method

CCCCCCCCCC [decane]
Details | mass density
303.16 K, 24314 kPa | 740.3 kg/m3
303.16 K, 24549 kPa | 740.5 kg/m3
303.16 K, 24602 kPa | 740.4 kg/m3
303.16 K, 24630 kPa | 740.5 kg/m3
303.16 K, 24682 kPa | 740.5 kg/m3
303.16 K, 24710 kPa | 740.6 kg/m3
303.16 K, 24755 kPa | 740.6 kg/m3
303.16 K, 24776 kPa | 740.5 kg/m3
303.16 K, 25088 kPa | 740.7 kg/m3
303.16 K, 25114 kPa | 740.9 kg/m3
303.16 K, 25147 kPa | 740.9 kg/m3
303.16 K, 25173 kPa | 740.9 kg/m3
303.16 K, 25208 kPa | 740.9 kg/m3
303.16 K, 25234 kPa | 740.9 kg/m3
303.16 K, 25263 kPa | 740.9 kg/m3
303.16 K, 25293 kPa | 741 kg/m3
303.16 K, 25324 kPa | 740.9 kg/m3
303.16 K, 25354 kPa | 741.1 kg/m3
303.16 K, 25385 kPa | 741.1 kg/m3
303.16 K, 25420 kPa | 741.1 kg/m3
303.16 K, 25450 kPa | 741 kg/m3
303.16 K, 25481 kPa | 741.1 kg/m3
303.16 K, 25524 kPa | 741.1 kg/m3
303.16 K, 25559 kPa | 741.1 kg/m3
303.16 K, 25586 kPa | 741.1 kg/m3
303.16 K, 25617 kPa | 741.1 kg/m3
303.16 K, 25802 kPa | 741.3 kg/m3
303.17 K, 10063 kPa | 730.2 kg/m3
303.17 K, 10074 kPa | 730.3 kg/m3
313.14 K, 1292 kPa | 715.7 kg/m3
313.14 K, 1332 kPa | 715.8 kg/m3
313.14 K, 1362 kPa | 715.8 kg/m3
313.14 K, 1410 kPa | 715.8 kg/m3
313.14 K, 1449 kPa | 715.7 kg/m3
313.14 K, 1483 kPa | 715.9 kg/m3
313.14 K, 1531 kPa | 715.8 kg/m3
313.14 K, 1584 kPa | 715.9 kg/m3
313.14 K, 1629 kPa | 716 kg/m3
313.14 K, 1669 kPa | 716 kg/m3
313.14 K, 1710 kPa | 716.1 kg/m3
313.14 K, 1760 kPa | 716.1 kg/m3
313.14 K, 1825 kPa | 716.1 kg/m3
313.14 K, 1889 kPa | 716.2 kg/m3
313.14 K, 1951 kPa | 716.3 kg/m3
313.14 K, 2000 kPa | 716.3 kg/m3
313.14 K, 2044 kPa | 716.3 kg/m3
313.14 K, 2096 kPa | 716.3 kg/m3
313.14 K, 2138 kPa | 716.4 kg/m3
313.14 K, 2175 kPa | 716.4 kg/m3
313.14 K, 2217 kPa | 716.4 kg/m3
313.14 K, 2260 kPa | 716.5 kg/m3
313.14 K, 2304 kPa | 716.5 kg/m3
313.14 K, 2364 kPa | 716.6 kg/m3
313.14 K, 2419 kPa | 716.7 kg/m3
313.14 K, 2474 kPa | 716.7 kg/m3
313.14 K, 2523 kPa | 716.8 kg/m3
313.14 K, 2591 kPa | 716.7 kg/m3
313.14 K, 2653 kPa | 716.8 kg/m3
313.14 K, 2699 kPa | 716.8 kg/m3
313.14 K, 2782 kPa | 717 kg/m3
313.14 K, 2826 kPa | 717.1 kg/m3
313.14 K, 2854 kPa | 717 kg/m3
313.14 K, 2900 kPa | 716.9 kg/m3
313.14 K, 2941 kPa | 717.2 kg/m3
313.14 K, 2970 kPa | 717 kg/m3
313.14 K, 3000 kPa | 717.1 kg/m3
313.14 K, 3048 kPa | 717.2 kg/m3
313.14 K, 3086 kPa | 717.2 kg/m3
313.14 K, 3137 kPa | 717.3 kg/m3
313.14 K, 3192 kPa | 717.3 kg/m3
313.14 K, 3234 kPa | 717.4 kg/m3
313.14 K, 3277 kPa | 717.4 kg/m3
313.14 K, 3305 kPa | 717.4 kg/m3
313.14 K, 3306 kPa | 717.5 kg/m3
313.14 K, 3307 kPa | 717.5 kg/m3
313.14 K, 3322 kPa | 717.5 kg/m3
313.14 K, 3343 kPa | 717.4 kg/m3
313.14 K, 3360 kPa | 717.4 kg/m3
313.14 K, 3378 kPa | 717.5 kg/m3
313.14 K, 3404 kPa | 717.4 kg/m3
313.14 K, 3422 kPa | 717.5 kg/m3
313.14 K, 3447 kPa | 717.5 kg/m3
313.14 K, 3468 kPa | 717.6 kg/m3
313.14 K, 3499 kPa | 717.6 kg/m3
313.14 K, 3518 kPa | 717.6 kg/m3
313.14 K, 3549 kPa | 717.7 kg/m3
313.14 K, 3576 kPa | 717.6 kg/m3
313.14 K, 3598 kPa | 717.8 kg/m3
313.14 K, 3629 kPa | 717.7 kg/m3
313.14 K, 3654 kPa | 717.7 kg/m3
313.14 K, 3674 kPa | 717.8 kg/m3
313.14 K, 3693 kPa | 717.8 kg/m3
313.14 K, 3713 kPa | 717.8 kg/m3
313.14 K, 3739 kPa | 717.8 kg/m3
313.14 K, 3768 kPa | 717.8 kg/m3
313.14 K, 3821 kPa | 717.9 kg/m3
313.14 K, 3843 kPa | 718 kg/m3
313.14 K, 3850 kPa | 717.8 kg/m3
313.14 K, 3853 kPa | 717.9 kg/m3
313.14 K, 3854 kPa | 717.9 kg/m3
313.14 K, 3856 kPa | 717.8 kg/m3
313.14 K, 3858 kPa | 717.9 kg/m3
313.14 K, 3860 kPa | 717.9 kg/m3
313.14 K, 3862 kPa | 717.9 kg/m3
313.14 K, 3864 kPa | 717.9 kg/m3
313.14 K, 3865 kPa | 717.9 kg/m3 and 717.8 kg/m3
313.14 K, 3876 kPa | 717.9 kg/m3
313.14 K, 3895 kPa | 718 kg/m3
313.14 K, 3915 kPa | 718 kg/m3
313.14 K, 3933 kPa | 718.1 kg/m3
313.14 K, 3949 kPa | 717.9 kg/m3
313.14 K, 3970 kPa | 718 kg/m3
313.14 K, 3989 kPa | 718.1 kg/m3
313.14 K, 4003 kPa | 718.1 kg/m3
313.14 K, 4028 kPa | 718.1 kg/m3
313.14 K, 4048 kPa | 718 kg/m3
313.14 K, 4070 kPa | 718.1 kg/m3
313.14 K, 4098 kPa | 718.1 kg/m3
313.14 K, 4121 kPa | 718.1 kg/m3
313.14 K, 4141 kPa | 718.2 kg/m3
313.14 K, 4159 kPa | 718.2 kg/m3
313.14 K, 4186 kPa | 718.2 kg/m3
313.14 K, 4203 kPa | 718.3 kg/m3
313.14 K, 4224 kPa | 718.3 kg/m3
313.14 K, 4245 kPa | 718.3 kg/m3
313.14 K, 4267 kPa | 718.3 kg/m3
313.14 K, 4287 kPa | 718.2 kg/m3
313.14 K, 4309 kPa | 718.3 kg/m3
313.14 K, 4328 kPa | 718.3 kg/m3
313.14 K, 4357 kPa | 718.4 kg/m3
313.14 K, 4386 kPa | 718.4 kg/m3
313.14 K, 4407 kPa | 718.4 kg/m3
313.14 K, 4434 kPa | 718.3 kg/m3
313.14 K, 4451 kPa | 718.4 kg/m3
313.14 K, 4477 kPa | 718.5 kg/m3
313.14 K, 4494 kPa | 718.5 kg/m3
313.14 K, 4509 kPa | 718.5 kg/m3
